Experimental data taken from ChEMBL document CHEMBL4418495, “Entpd5 inhibitors” (2012).
Active and inactive are the calls of the source. How the calls were made is not given here.

Assays:
[1] = biological target: T1, Nucleoside diphosphate phosphatase ENTPD5 (Homo sapiens) (UniProt O75356); assay: Inhibition of human recombinant ENTPD5 expressed in insect cells assessed as reduction in UDP hydrolysis at 1 uM incubated for 1 hr in presence of UMP, GTP and ATP by Escherichia coli UMP kinase pyrH catalyzed UMP phosphorylation coupled luciferase assay
T1 sequence (whole entry): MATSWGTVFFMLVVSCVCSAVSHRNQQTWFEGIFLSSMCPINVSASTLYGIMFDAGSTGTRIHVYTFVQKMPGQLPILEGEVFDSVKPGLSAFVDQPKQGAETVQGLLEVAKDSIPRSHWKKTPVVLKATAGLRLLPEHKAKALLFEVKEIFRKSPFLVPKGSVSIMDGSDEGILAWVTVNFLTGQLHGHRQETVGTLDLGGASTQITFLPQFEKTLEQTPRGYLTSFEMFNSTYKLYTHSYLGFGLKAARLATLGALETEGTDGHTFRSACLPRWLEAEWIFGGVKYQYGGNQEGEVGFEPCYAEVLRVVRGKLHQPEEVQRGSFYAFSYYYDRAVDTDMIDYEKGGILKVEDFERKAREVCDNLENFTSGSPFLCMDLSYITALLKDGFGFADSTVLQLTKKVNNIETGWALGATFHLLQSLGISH

[2] = biological target: T1, Nucleoside diphosphate phosphatase ENTPD5 (Homo sapiens); assay: Inhibition of human recombinant ENTPD5 expressed in insect cells assessed as reduction in UDP hydrolysis up to 10 uM incubated for 1 hr in presence of UMP, GTP and ATP by Escherichia coli UMP kinase pyrH catalyzed UMP phosphorylation coupled luciferase assay
[3] = biological target: T2, Uridylate kinase (Escherichia coli (strain K12)) (UniProt P0A7E9); assay: Inhibition of recombinant Escherichia coli UMP kinase pyrH catalyzed UMP phosphorylation in presence of GTP and ATP incubated for 1 hr by luminescence based assay
T2 sequence (whole entry): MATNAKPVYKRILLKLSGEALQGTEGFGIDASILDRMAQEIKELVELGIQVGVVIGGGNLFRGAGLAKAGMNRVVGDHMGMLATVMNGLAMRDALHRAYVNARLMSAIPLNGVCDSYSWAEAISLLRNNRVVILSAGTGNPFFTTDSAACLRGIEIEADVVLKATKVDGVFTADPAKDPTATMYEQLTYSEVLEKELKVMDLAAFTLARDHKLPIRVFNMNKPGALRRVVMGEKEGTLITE

[4] = biological target: T1, Nucleoside diphosphate phosphatase ENTPD5 (Homo sapiens); assay: Inhibition of human recombinant ENTPD5 expressed in insect cells assessed as reduction in reduction in UDP hydrolysis by measuring inorganic phosphate release incubated for 1 hr by malachite green based assay

O=C1NC(=S)NC(=O)C1=Cc1cn(-c2ccccc2)nc1-c1cc2c(ccc3ccccc32)oc1=O
inhibition [1]: Active | inhibition [2]: Dose-dependent effect | inhibition [3]: inactive | inhibition [4]: Active

O=C1N=C(Nc2cccc(Cl)c2Cl)S/C1=C/c1ccc(OCc2ccc(C(=O)O)cc2)c(Br)c1
inhibition [1]: Active | inhibition [2]: Dose-dependent effect | inhibition [3]: inactive | inhibition [4]: Active

O=C(NC(=S)Nc1ccc(-c2nc3ncccc3o2)cc1)c1ccc(Cl)cc1Cl
inhibition [1]: Active | inhibition [2]: Dose-dependent effect | inhibition [3]: inactive | inhibition [4]: Active

COc1cc(C2Nc3cccc4cccc(c34)N2)cc(I)c1O
inhibition [1]: Active | inhibition [2]: Dose-dependent effect | inhibition [3]: inactive | inhibition [4]: Active

O=C1OC(c2ccccc2)OC(=O)C1=Cc1ccc(-c2cc([N+](=O)[O-])ccc2Cl)o1 (stereo unspecified)
inhibition [1]: Active | inhibition [2]: Dose-dependent effect | inhibition [3]: inactive | inhibition [4]: Active

Cc1cc(/C=C2\C(=O)NC(=S)N(c3cccc(Cl)c3)C2=O)c(C)n1-c1ccc(Br)cc1
inhibition [1]: Active | inhibition [2]: Dose-dependent effect | inhibition [3]: inactive | inhibition [4]: Active

Cc1cccc(Oc2ccc(N3C(=O)C=CC3=O)cc2)c1C
inhibition [1]: Active | inhibition [2]: Dose-dependent effect | inhibition [3]: inactive | inhibition [4]: Active

O=C(O)c1ccc(NC(=O)c2ccc3c(c2)C(=O)N(c2ccc(/N=N/c4ccccc4)cc2)C3=O)cc1
inhibition [1]: Active | inhibition [2]: Dose-dependent effect | inhibition [3]: inactive | inhibition [4]: Active

O=C1C=CC(Br)=C/C1=C/NNC(=O)c1cc2ccccc2cc1O
inhibition [1]: Active | inhibition [2]: Dose-dependent effect | inhibition [3]: inactive | inhibition [4]: Active

O=C1c2c(O)cccc2Cc2cccc(O)c21
inhibition [1]: Active | inhibition [2]: Dose-dependent effect | inhibition [3]: inactive | inhibition [4]: Active

COc1cc(-c2ccc(/C=C/c3[nH]c(=O)[nH]c(=O)c3[N+](=O)[O-])o2)c(OC)cc1Cl
inhibition [1]: Active | inhibition [2]: Dose-dependent effect | inhibition [3]: inactive | inhibition [4]: Active

COc1cccc(OCCn2cc(/C=C3/C(=N)N4N=C(C(C)C)SC4=NC3=O)c3ccccc32)c1
inhibition [1]: Active | inhibition [2]: Dose-dependent effect | inhibition [3]: inactive | inhibition [4]: Active

O=S(=O)(Nc1ccccc1F)c1ccc2c(c1)[C@@H]1C=CC[C@@H]1[C@@H](c1ccc(F)cc1)N2
inhibition [1]: Active | inhibition [2]: Dose-dependent effect | inhibition [3]: inactive | inhibition [4]: Active

Cc1nn2cc(-c3ccccc3)cc2c2c(C)n(C)c(C)c12
inhibition [1]: Active | inhibition [2]: Dose-dependent effect | inhibition [3]: inactive | inhibition [4]: Active

CC(C)(C)c1cc(CN(CCO)CCO)cc(C(C)(C)C)c1O
inhibition [1]: Active | inhibition [2]: Dose-dependent effect | inhibition [3]: inactive | inhibition [4]: Active

O=C1NC(=O)N(c2ccc(Br)cc2)C(=O)/C1=C/c1c[nH]c2ccccc12
inhibition [1]: Active | inhibition [2]: Dose-dependent effect | inhibition [3]: inactive | inhibition [4]: Active

CCN(CC)c1ccc2cc(C(N)=O)/c(=N/c3cccc4ccccc34)oc2c1
inhibition [1]: Active | inhibition [2]: Dose-dependent effect | inhibition [3]: inactive | inhibition [4]: Active

S=C(NCc1ccccc1)Nc1ccc2nc(-c3ccco3)c(-c3ccco3)nc2c1
inhibition [1]: Active | inhibition [2]: Dose-dependent effect | inhibition [3]: inactive | inhibition [4]: Active

CCc1ccc(NS(=O)(=O)c2ccc(N3C(=O)c4cc([N+](=O)[O-])cc5cc([N+](=O)[O-])cc(c45)C3=O)cc2)cc1
inhibition [1]: Active | inhibition [2]: Dose-dependent effect | inhibition [3]: inactive | inhibition [4]: Active

O=C(Nc1ccc(Oc2ccc(NC(=O)c3cccs3)cc2)cc1)c1cccs1
inhibition [1]: Active | inhibition [2]: Dose-dependent effect | inhibition [3]: inactive | inhibition [4]: Active

O=C1OC(c2ccccc2)OC(=O)C1=Cc1ccc(-c2cccc(Br)c2)o1 (stereo unspecified)
inhibition [1]: Active | inhibition [2]: Dose-dependent effect | inhibition [3]: inactive | inhibition [4]: Active

Cc1ccc2ncc(C(CC(=O)N3CCN(C(c4ccccc4)c4ccccc4)CC3)c3ccc4c(c3)OCO4)n2c1 (stereo unspecified)
inhibition [1]: Active | inhibition [2]: Dose-dependent effect | inhibition [3]: inactive | inhibition [4]: Active

O=C1/C(=C/c2cc([N+](=O)[O-])cc(Br)c2O)SC(=S)N1c1ccc([N+](=O)[O-])cc1
inhibition [1]: Active | inhibition [2]: Dose-dependent effect | inhibition [3]: inactive | inhibition [4]: Active

O=C1/C(=C\C=C\c2ccco2)SC(=S)N1Cc1ccccc1
inhibition [1]: Active | inhibition [2]: Dose-dependent effect | inhibition [3]: inactive | inhibition [4]: Active

O=[N+]([O-])c1ccc(NCc2ccco2)c2nonc12
inhibition [1]: Active | inhibition [2]: Dose-dependent effect | inhibition [3]: inactive | inhibition [4]: Active

COC(=O)Cn1c(/C=C2\C(=O)NC(=S)N(c3cccc(Br)c3)C2=O)cc2ccccc21
inhibition [1]: Active | inhibition [2]: Dose-dependent effect | inhibition [3]: inactive | inhibition [4]: Active

CN1C(=O)C(=Cc2ccc(Sc3ccccc3)o2)C(=O)N(C)C1=S
inhibition [1]: Active | inhibition [2]: Dose-dependent effect | inhibition [3]: inactive | inhibition [4]: Active

Cc1ccc(N2C(=O)/C(=C/c3cc(Br)cc(I)c3O)C(=O)NC2=S)cc1C
inhibition [1]: Active | inhibition [2]: Dose-dependent effect | inhibition [3]: inactive | inhibition [4]: Active

Clc1ccc(C2N=c3c(-c4ccco4)nnc(-c4nc5ccccc5s4)c3=N2)cc1 (stereo unspecified)
inhibition [1]: Active | inhibition [2]: Dose-dependent effect | inhibition [3]: inactive | inhibition [4]: Active

CCOc1cc(/C=C2\SC(=S)NC2=O)cc(Br)c1OCc1cccc2ccccc12
inhibition [1]: Active | inhibition [2]: Dose-dependent effect | inhibition [3]: inactive | inhibition [4]: Active

COc1ccc(-n2cccc2/C=C2\C(=O)NC(=S)N(c3ccc(C)c(C)c3)C2=O)cc1
inhibition [1]: Active | inhibition [2]: Dose-dependent effect | inhibition [3]: inactive | inhibition [4]: Active

O=C1C=Cc2ccccc2/C1=C/NNC(=O)C(O)(c1ccccc1)c1ccccc1
inhibition [1]: Active | inhibition [2]: Dose-dependent effect | inhibition [3]: inactive | inhibition [4]: Active

NC1=C/C(=C2\Nc3cc(N)ccc3S2)C(=O)C=C1
inhibition [1]: Active | inhibition [2]: Dose-dependent effect | inhibition [3]: inactive | inhibition [4]: Active

CCN1C(=O)/C(=C/c2cccn2C)C(=O)NC1=S
inhibition [1]: Active | inhibition [2]: Dose-dependent effect | inhibition [3]: inactive | inhibition [4]: Active

CC(=O)c1ccc(-c2ccc(C=C3C(=O)N(C)C(=S)N(C)C3=O)o2)cc1
inhibition [1]: Active | inhibition [2]: Dose-dependent effect | inhibition [3]: inactive | inhibition [4]: Active

NC(=O)c1cc2cc(Br)ccc2o/c1=N\c1cc(C(F)(F)F)ccc1N1CCCCC1
inhibition [1]: Active | inhibition [2]: Dose-dependent effect | inhibition [3]: inactive | inhibition [4]: Active

COc1cccc(C(c2cc(C(C)(C)C)c(O)c(C(C)(C)C)c2)N2CCOCC2)c1OC (stereo unspecified)
inhibition [1]: Active | inhibition [2]: Dose-dependent effect | inhibition [3]: inactive | inhibition [4]: Active

COC(=O)c1cccc2c1NC(c1ccc([N+](=O)[O-])cc1)C1CC=CC21 (stereo unspecified)
inhibition [1]: Active | inhibition [2]: Dose-dependent effect | inhibition [3]: inactive | inhibition [4]: Active

COc1ccc([C@@H]2Nc3ccc(Br)cc3[C@@H]3C=CC[C@@H]32)cc1[N+](=O)[O-]
inhibition [1]: Active | inhibition [2]: Dose-dependent effect | inhibition [3]: inactive | inhibition [4]: Active
